# Reference: ChEMBL document CHEMBL5143597, “Design and synthesis of novel spirocyclic carboxylic acids as potent and orally bioavailable DGAT1 inhibitors and their biological evaluation” (Bioorg Med Chem Lett, 2022)
# Calls of active or inactive are those of the source. No cut-off for these calls is given here.
# Columns and labels:
# Mus musculus [1] = assay: In vivo inhibition of DGAT1 in C57BL/6 mouse model of acute lipid challenge assessed as reduction in chylomicron derived plasma triglyceride excursion at 3 to 10 mg/kg, po as corn oil bolus by Oral lipid tolerance test relative to control; type: functional, organism-based; details: dose 3-10 mg/kg
# Mus musculus [2] = assay: In vivo inhibition of DGAT1 in C57BL/6 mouse model of acute lipid challenge assessed as reduction in AUC plasma triglyceride level at 3 to 10 mg/kg, po as corn oil bolus by Oral lipid tolerance test relative to control; type: functional, organism-based; details: dose 3-10 mg/kg
# [3] = target: 2-acylglycerol O-acyltransferase 2 (Homo sapiens) (UniProt Q3SYC2); assay: Inhibition of recombinant human MGAT2 expressed in Sf9 cell membrane assessed as inhibition of triglyceride synthesis at 10 uM for 1 hr by LC-MS-based mass spectrophotometric analysis
# 2-acylglycerol O-acyltransferase 2 (Homo sapiens), sequence (Q3SYC2 whole entry, looked up): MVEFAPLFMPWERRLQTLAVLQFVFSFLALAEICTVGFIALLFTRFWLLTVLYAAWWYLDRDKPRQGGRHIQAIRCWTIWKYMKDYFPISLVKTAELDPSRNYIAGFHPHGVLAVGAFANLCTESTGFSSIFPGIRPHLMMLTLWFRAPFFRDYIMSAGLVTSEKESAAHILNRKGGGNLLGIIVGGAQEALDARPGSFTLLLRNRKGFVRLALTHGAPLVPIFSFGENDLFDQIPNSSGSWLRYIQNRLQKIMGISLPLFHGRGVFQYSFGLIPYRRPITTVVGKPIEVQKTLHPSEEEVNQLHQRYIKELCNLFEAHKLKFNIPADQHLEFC
# [4] = Inhibition of human […] in HepG2 cells assessed as inhibition of triglyceride synthesis at 1 uM incubated for 1 hrs followed by 13C-addition of 13C-oleic acid pre-complexed with fatty acid free BSA for 6 hrs by LC/MS/MS analysis; details: time 7.0 hrs
# [5] = Inhibition of human […] in HepG2 cells assessed as inhibition of triglyceride synthesis at 100 nM incubated for 1 hrs followed by 13C-addition of 13C-oleic acid pre-complexed with fatty acid free BSA for 6 hrs by LC/MS/MS analysis; details: time 7.0 hrs
# [6] = Inhibition of human […] in HepG2 cells assessed as inhibition of triglyceride synthesis at 300 nM incubated for 1 hrs followed by 13C-addition of 13C-oleic acid pre-complexed with fatty acid free BSA for 6 hrs by LC/MS/MS analysis; details: time 7.0 hrs
# [7] = target: T1, Diacylglycerol O-acyltransferase 1 (Homo sapiens, UniProt O75907); assay: Inhibition of recombinant human DGAT1 expressed in Sf9 cell membrane assessed as inhibition of triglyceride synthesis incubated for 1 hrs by LC-MS-based mass spectrophotometric analysis; type: cell membranes
# T1 sequence (O75907 whole entry): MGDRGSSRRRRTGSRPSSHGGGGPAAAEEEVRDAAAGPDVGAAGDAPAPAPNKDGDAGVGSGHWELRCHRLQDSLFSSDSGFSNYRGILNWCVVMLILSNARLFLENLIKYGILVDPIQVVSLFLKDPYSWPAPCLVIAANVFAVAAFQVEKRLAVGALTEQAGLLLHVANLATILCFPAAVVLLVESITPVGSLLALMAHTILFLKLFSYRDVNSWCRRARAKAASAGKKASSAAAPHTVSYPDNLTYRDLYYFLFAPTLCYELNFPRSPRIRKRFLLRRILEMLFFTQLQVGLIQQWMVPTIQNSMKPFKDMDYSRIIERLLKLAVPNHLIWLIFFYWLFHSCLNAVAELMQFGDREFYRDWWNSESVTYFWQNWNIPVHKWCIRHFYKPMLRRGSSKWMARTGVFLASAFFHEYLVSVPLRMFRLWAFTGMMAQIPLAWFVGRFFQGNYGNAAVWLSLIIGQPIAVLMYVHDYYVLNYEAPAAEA
# [8] = target: T1, Diacylglycerol O-acyltransferase 1; assay: Inhibition of human DGAT1 in serum starved HEK293 cells assessed as inhibition of triglyceride synthesis incubated for 20 mins followed by 13C-addition of 13C-oleic acid pre-complexed with BSA for 120 mins by LC-MS-based mass spectrophotometric analysis; type: cell-based
# [9] = Metabolic stability in rat liver microsomes assessed as parent compound remaining at 1 uM and measured at 30 mins by LC-MS/MS analysis; type: ADME, Microsome; details: read-out: Stability
# [10] = Metabolic stability in mouse liver microsomes assessed as parent compound remaining at 1 uM and measured at 30 mins by LC-MS/MS analysis; type: ADME, Microsome; details: read-out: Stability
# [11] = Metabolic stability in human liver microsomes assessed as parent compound remaining at 1 uM and measured at 30 mins by LC-MS/MS analysis; type: ADME, Microsome; details: read-out: Stability
# CYP2D6 = CYP2D6 (Homo sapiens, UniProt P10635); assay: Inhibition of recombinant human CYP2D6 at 25 uM by fluorescence plate reader analysis; type: ADME
# CYP2D6, sequence (P10635 whole entry): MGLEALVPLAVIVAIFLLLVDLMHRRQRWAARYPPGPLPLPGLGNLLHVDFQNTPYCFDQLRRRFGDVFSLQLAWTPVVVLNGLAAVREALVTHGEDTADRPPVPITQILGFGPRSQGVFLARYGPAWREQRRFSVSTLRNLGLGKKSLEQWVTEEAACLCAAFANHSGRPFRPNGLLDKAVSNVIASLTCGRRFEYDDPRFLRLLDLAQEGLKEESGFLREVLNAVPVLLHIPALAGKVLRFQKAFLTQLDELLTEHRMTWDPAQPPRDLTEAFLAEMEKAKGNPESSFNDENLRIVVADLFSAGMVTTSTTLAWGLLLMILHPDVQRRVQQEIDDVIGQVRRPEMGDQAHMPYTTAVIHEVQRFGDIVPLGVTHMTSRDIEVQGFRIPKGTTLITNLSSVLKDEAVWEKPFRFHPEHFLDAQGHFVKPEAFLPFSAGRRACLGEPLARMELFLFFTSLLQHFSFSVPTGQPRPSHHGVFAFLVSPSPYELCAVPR
# hERG (KCNH2) = hERG (KCNH2) (Homo sapiens, UniProt Q12809); assay: Displacement of [3H]astemizole from human ERG expressed in HEK293 cell membrane at 30 uM for 2 hrs by Radiometric displacement assay; type: toxicity; details: HEK293 cell membranes that express hERG, probe [3H]astemizole
# hERG (KCNH2), sequence (Q12809 whole entry): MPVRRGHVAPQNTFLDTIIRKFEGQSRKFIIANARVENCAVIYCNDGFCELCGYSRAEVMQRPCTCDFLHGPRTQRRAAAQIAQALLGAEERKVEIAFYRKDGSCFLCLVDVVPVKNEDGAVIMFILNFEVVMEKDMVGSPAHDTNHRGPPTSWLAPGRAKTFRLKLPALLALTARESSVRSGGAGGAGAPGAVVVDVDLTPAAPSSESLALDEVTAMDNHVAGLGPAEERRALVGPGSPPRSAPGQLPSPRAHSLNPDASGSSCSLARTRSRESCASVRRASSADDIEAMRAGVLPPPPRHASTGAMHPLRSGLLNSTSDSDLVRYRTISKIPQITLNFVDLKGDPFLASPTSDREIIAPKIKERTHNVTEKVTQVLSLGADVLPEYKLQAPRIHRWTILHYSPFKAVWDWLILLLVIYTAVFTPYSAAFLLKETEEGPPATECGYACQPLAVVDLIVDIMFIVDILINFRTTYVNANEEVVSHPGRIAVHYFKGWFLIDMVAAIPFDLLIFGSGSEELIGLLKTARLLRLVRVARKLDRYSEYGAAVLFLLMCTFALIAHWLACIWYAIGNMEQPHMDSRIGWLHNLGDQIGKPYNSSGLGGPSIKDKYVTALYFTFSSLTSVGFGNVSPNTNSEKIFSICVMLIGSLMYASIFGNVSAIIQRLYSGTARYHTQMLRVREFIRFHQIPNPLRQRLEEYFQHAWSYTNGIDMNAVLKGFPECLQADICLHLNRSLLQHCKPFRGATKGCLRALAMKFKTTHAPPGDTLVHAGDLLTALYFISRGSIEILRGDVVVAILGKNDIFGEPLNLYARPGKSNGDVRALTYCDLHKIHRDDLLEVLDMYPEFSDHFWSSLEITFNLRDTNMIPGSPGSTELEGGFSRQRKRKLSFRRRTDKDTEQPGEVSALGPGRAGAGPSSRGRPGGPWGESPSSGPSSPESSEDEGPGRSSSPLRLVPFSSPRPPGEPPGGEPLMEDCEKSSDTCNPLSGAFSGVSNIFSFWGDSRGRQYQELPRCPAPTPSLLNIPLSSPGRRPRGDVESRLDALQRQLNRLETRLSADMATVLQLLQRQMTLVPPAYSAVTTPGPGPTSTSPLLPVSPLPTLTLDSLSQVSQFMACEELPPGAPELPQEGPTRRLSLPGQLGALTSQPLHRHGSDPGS
# [12] = Plasma protein binding in rat; type: ADME, cell-free; details: read-out: PPB
# [13] = Plasma protein binding in mouse; type: ADME, cell-free; details: read-out: PPB (converted)
# [14] = Clearance in C57BL/6 mouse at 3 mg/kg, iv or 10 mg/kg, po and measured up to 24 hrs by LC-MS/MS analysis; type: ADME, organism-based; details: in vivo
# [15] = Apparent permeability across apical to basolateral side in MDCK cells at 2.5 uM for 90 mins; type: ADME, cell-based, Canis lupus familiaris; details: dog
# [16] = Volume of distribution at steady state in C57BL/6 mouse at 3 mg/kg, iv or 10 mg/kg, po and measured up to 24 hrs by LC-MS/MS analysis; type: ADME, organism-based; details: in vivo, read-out: Vdss
# [17] = AUC in C57BL/6 mouse at 3 mg/kg, iv or 10 mg/kg, po and measured up to 24 hrs by LC-MS/MS analysis; type: ADME, organism-based; design: time < 24 hrs, dose 3 mg/kg, route iv; details: in vivo
# [18] = Cmax in C57BL/6 mouse at 3 mg/kg, iv or 10 mg/kg, po and measured up to 24 hrs by LC-MS/MS analysis; type: ADME, organism-based; design: dose 3 mg/kg, time < 24 hrs, route iv; details: in vivo
# [19] = Tmax in C57BL/6 mouse at 3 mg/kg, iv or 10 mg/kg, po and measured up to 24 hrs by LC-MS/MS analysis; type: ADME, organism-based; details: in vivo
# [20] = Half life in C57BL/6 mouse at 3 mg/kg, iv or 10 mg/kg, po and measured up to 24 hrs by LC-MS/MS analysis; type: ADME, organism-based; details: in vivo
# [21] = Oral bioavailability in C57BL/6 mouse 10 mg/kg or 3 mg/kg, iv and measured up to 24 hrs by LC-MS/MS analysis; type: ADME, organism-based; details: in vivo
# [22] = Volume of distribution at steady state in Wistar rat at 3 mg/kg, iv or 10 mg/kg, po and measured up to 24 hrs by LC-MS/MS analysis; type: ADME, organism-based; details: in vivo, read-out: Vdss
# [23] = Clearance in Wistar rat at 3 mg/kg, iv or 10 mg/kg, po and measured up to 24 hrs by LC-MS/MS analysis; type: ADME, organism-based; details: in vivo
# [24] = AUC in Wistar rat at 3 mg/kg, iv or 10 mg/kg, po and measured up to 24 hrs by LC-MS/MS analysis; type: ADME, organism-based; design: dose 3 mg/kg, time < 24 hrs, route iv; details: in vivo
# [25] = Cmax in Wistar rat at 3 mg/kg, iv or 10 mg/kg, po and measured up to 24 hrs by LC-MS/MS analysis; type: ADME, organism-based; design: dose 3 mg/kg, time < 24 hrs, route iv; details: in vivo
# [26] = Tmax in Wistar rat at 3 mg/kg, iv or 10 mg/kg, po and measured up to 24 hrs by LC-MS/MS analysis; type: ADME, organism-based; details: in vivo
# [27] = Half life in Wistar rat at 3 mg/kg, iv or 10 mg/kg, po and measured up to 24 hrs by LC-MS/MS analysis; type: ADME, organism-based; details: in vivo
# [28] = Oral bioavailability in Wistar rat at 10 mg/kg or 3 mg/kg, iv and measured up to 24 hrs by LC-MS/MS analysis; type: ADME, organism-based; details: in vivo
# [29] = Drug distribution in C57BL/6 mouse plasma 10 mg/kg, po and measured at 1 hrs post dose by LC-MS/MS analysis; type: ADME, organism-based
# [30] = Drug distribution in C57BL/6 mouse plasma 10 mg/kg, po and measured at 2 hrs post dose by LC-MS/MS analysis; type: ADME, organism-based
# [31] = Drug distribution in C57BL/6 mouse plasma 10 mg/kg, po and measured at 8 hrs post dose by LC-MS/MS analysis; type: ADME, organism-based
# [32] = Drug distribution in C57BL/6 mouse adipose tissue 10 mg/kg, po and measured at 1 hrs post dose by LC-MS/MS analysis; type: ADME, organism-based; details: read-out: Ct
# [33] = Drug distribution in C57BL/6 mouse adipose tissue 10 mg/kg, po and measured at 2 hrs post dose by LC-MS/MS analysis; type: ADME, organism-based; details: read-out: Ct
# [34] = Drug distribution in C57BL/6 mouse adipose tissue 10 mg/kg, po and measured at 8 hrs post dose by LC-MS/MS analysis; type: ADME, organism-based; details: read-out: Ct
# [35] = Drug distribution in C57BL/6 mouse liver 10 mg/kg, po and measured at 1 hrs post dose by LC-MS/MS analysis; type: ADME, organism-based; details: read-out: Ct
# [36] = Drug distribution in C57BL/6 mouse liver 10 mg/kg, po and measured at 2 hrs post dose by LC-MS/MS analysis; type: ADME, organism-based; details: read-out: Ct
# [37] = Drug distribution in C57BL/6 mouse liver 10 mg/kg, po and measured at 8 hrs post dose by LC-MS/MS analysis; type: ADME, organism-based; details: read-out: Ct
# [38] = Drug distribution in C57BL/6 mouse skeletal muscle 10 mg/kg, po and measured at 1 hrs post dose by LC-MS/MS analysis; type: ADME, organism-based, Skeletal muscle tissue; details: read-out: Ct
# [39] = Drug distribution in C57BL/6 mouse skeletal muscle 10 mg/kg, po and measured at 2 hrs post dose by LC-MS/MS analysis; type: ADME, organism-based, Skeletal muscle tissue; details: read-out: Ct
# [40] = Drug distribution in C57BL/6 mouse skeletal muscle 10 mg/kg, po and measured at 8 hrs post dose by LC-MS/MS analysis; type: ADME, organism-based, Skeletal muscle tissue; details: read-out: Ct
# [41] = Drug distribution in C57BL/6 mouse brain 10 mg/kg, po and measured at 1 hrs post dose by LC-MS/MS analysis; type: ADME, organism-based; details: read-out: Ct
smiles,measurement,setting,value
O=C(O)CC1CCC2(CC1)CCN(c1ccc(NC(=O)c3nnc(Nc4ccc(F)c(F)c4)o3)cn1)CC2,inhibition,Mus musculus [1],Active
same,inhibition,Mus musculus [2],Active
O=C(O)CC1CCC2(CC1)CCC(c1ccc(NC(=O)c3nnc(Nc4ccc(F)c(F)c4)o3)cn1)CC2 (stereo not drawn),inhibition,[3],16%
same,inhibition,[4],90%
same,inhibition,[5],55%
same,inhibition,[6],82%
O=C(O)CC1CCC2(CC1)CCC(c1ccc(NC(=O)c3nnc(Nc4ccc(F)c(F)c4)o3)cc1)CC2 (stereo in doubt; 8b),IC50,[7],75 nM
same,IC50,[8],23 nM
O=C(Nc1ccc(C2CCC3(CC2)CC(C(=O)O)C3)cc1)c1nnc(Nc2ccc(F)c(F)c2)o1 (stereo not drawn),"remaining at 0.5 h, 1 µM",[9],100%
same,"remaining at 0.5 h, 1 µM",[10],96%
same,"remaining at 0.5 h, 1 µM",[11],95%
same,inhibition at 25 µM,CYP2D6,10%
same,"inhibition at 2 h, 30 µM",hERG (KCNH2),16%
same,fraction unbound,[12],0.01
same,fraction unbound,[13],0.02
same,clearance,[14],34 mL/min/kg
same,"Papp A→B at 1.5 h, 2.5 µM",[15],4.9 ×10⁻⁶ cm/s
same,Vd,[16],4.4 L/kg
same,AUC at 24 h,[17],2.8 µM·h
same,Cmax,[18],1400 nM
same,Tmax,[19],0.25 h
same,half-life,[20],3.6 h
same,bioavailability,[21],30%
same,Vd,[22],0.53 L/kg
same,clearance,[23],6.2 mL/min/kg
same,AUC at 24 h,[24],17 µM·h
same,Cmax,[25],14000 nM
same,Tmax,[26],1 h
same,half-life,[27],3.6 h
same,bioavailability,[28],100%
same,concentration at 1 h,[29],5900 nM
same,concentration at 2 h,[30],1660 nM
same,concentration at 8 h,[31],360 nM
same,concentration at 1 h,[32],470 nM
same,concentration at 2 h,[33],350 nM
same,concentration at 8 h,[34],130 nM
same,concentration at 1 h,[35],142000 nM
same,concentration at 2 h,[36],71600 nM
same,concentration at 8 h,[37],17800 nM
same,concentration at 1 h,[38],160 nM
same,concentration at 2 h,[39],60 nM
same,concentration at 8 h,[40],30 nM
same,concentration at 1 h,[41],20 nM
